Target: T1, E. coli DXP synthase (DXPS) (Escherichia coli, UniProt P77488)
T1 sequence (P77488 2-620): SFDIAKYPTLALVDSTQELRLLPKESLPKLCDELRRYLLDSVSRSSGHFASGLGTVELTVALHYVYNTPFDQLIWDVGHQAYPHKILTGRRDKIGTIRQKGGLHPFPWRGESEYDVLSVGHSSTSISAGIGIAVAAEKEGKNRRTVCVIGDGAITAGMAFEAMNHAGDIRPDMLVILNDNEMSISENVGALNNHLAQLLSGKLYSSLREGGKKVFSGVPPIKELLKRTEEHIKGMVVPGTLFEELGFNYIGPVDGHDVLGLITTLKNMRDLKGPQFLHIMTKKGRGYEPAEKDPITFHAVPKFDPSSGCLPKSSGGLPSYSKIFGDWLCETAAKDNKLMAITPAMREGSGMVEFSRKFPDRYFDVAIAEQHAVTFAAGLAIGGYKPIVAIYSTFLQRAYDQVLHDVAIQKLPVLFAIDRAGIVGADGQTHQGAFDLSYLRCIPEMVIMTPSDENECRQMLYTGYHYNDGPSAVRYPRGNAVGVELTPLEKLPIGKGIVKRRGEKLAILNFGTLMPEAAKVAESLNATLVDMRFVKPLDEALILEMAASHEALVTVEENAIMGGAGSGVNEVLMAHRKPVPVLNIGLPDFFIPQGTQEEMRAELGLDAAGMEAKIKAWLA
Experiment: IspC-coupled NADPH consumption at […] nm
Assay type: biochemical

Structure (SMILES) | Ki [µM]
CCCOP(=O)(O)C(C)=O [compound 3, alkylAP 3] | 7.1 ± 0.8
CCCCCCCCOP(=O)(O)C(C)=O [compound 7, octylacetylphosphonate] | 1.4 ± 0.2

Source: PMC5650741 (ACS infectious diseases, 2017)
